“And” between values parts separate entries of the source, which are not always exact repeats. Equal entries are not always repeated. Toxic doses and inconclusive results are not listed. Cut-off read from the data, not from the text of the source: active = T/C of 150% or more; inactive = T/C below 125%. Peptide text beside a SMILES is read from it. * marks the point of attachment. Cbz = O=C(OCc1ccccc1)*; Bn = c1ccc(C*)cc1
Test system: L1210 leukemia ip in BDF1 mice, survival T/C
Assay: NCI In Vivo Anticancer Drug Screen. Data for tumor model L1210 Leukemia (intraperitoneal) in B6D2F1 (BDF1) mice
Details: endpoint: mean survival time, higher = longer survival
Outline: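 Each compound was tested against a transplantable tumor grown in mice. The endpoint was survival, with treated animals benchmarked against vehicle controls as a simple ratio.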

[1] = dose: 100.0 mg/kg/injection, schedule: Q04DX002 (ip), vehicle: Klucel (hydroxypropylcellulose) (HPC)
[2] = dose: 200.0 mg/kg/injection, schedule: Q04DX002 (ip), vehicle: Klucel (hydroxypropylcellulose) (HPC)
[3] = dose: 400.0 mg/kg/injection, schedule: Q04DX002 (ip), vehicle: Klucel (hydroxypropylcellulose) (HPC)
[4] = dose: 100.0 mg/kg/injection, schedule: Q01DX001 (ip), vehicle: carboxymethylcellulose (CMC)
[5] = dose: 200.0 mg/kg/injection, schedule: Q01DX001 (ip), vehicle: carboxymethylcellulose (CMC)
[6] = dose: 400.0 mg/kg/injection, schedule: Q01DX001 (ip), vehicle: carboxymethylcellulose (CMC)
[7] = dose: 100.0 mg/kg/injection, schedule: Q01DX009 (ip), vehicle: Klucel (hydroxypropylcellulose) (HPC)
[8] = dose: 200.0 mg/kg/injection, schedule: Q01DX009 (ip), vehicle: Klucel (hydroxypropylcellulose) (HPC)
[9] = dose: 400.0 mg/kg/injection, schedule: Q01DX009 (ip), vehicle: Klucel (hydroxypropylcellulose) (HPC)
[10] = dose: 50.0 mg/kg/injection, schedule: Q04DX003 (ip), vehicle: Klucel (hydroxypropylcellulose) (HPC)
[11] = dose: 100.0 mg/kg/injection, schedule: Q01DX001 (ip), vehicle: Klucel (hydroxypropylcellulose) (HPC)
[12] = dose: 100.0 mg/kg/injection, schedule: Q04DX003 (ip), vehicle: Klucel (hydroxypropylcellulose) (HPC)
[13] = dose: 200.0 mg/kg/injection, schedule: Q01DX001 (ip), vehicle: Klucel (hydroxypropylcellulose) (HPC)
[14] = dose: 200.0 mg/kg/injection, schedule: Q04DX003 (ip), vehicle: Klucel (hydroxypropylcellulose) (HPC)
[15] = dose: 400.0 mg/kg/injection, schedule: Q01DX001 (ip), vehicle: Klucel (hydroxypropylcellulose) (HPC)
[16] = dose: 400.0 mg/kg/injection, schedule: Q04DX003 (ip), vehicle: Klucel (hydroxypropylcellulose) (HPC)
[17] = dose: 100.0 mg/kg/injection, schedule: Q01DX001 (ip), vehicle: saline
[18] = dose: 200.0 mg/kg/injection, schedule: Q01DX001 (ip), vehicle: saline
[19] = dose: 50.0 mg/kg/injection, schedule: Q01DX009 (ip), vehicle: saline

Measured: T/C

CCC1CN2C(=N1)c1ccccc1-c1cc(Cl)cc(Cl)c12 (stereo unspecified)
inactive: dose: 100.0 mg/kg/injection, schedule: Q01DX005 (ip), vehicle: Klucel (hydroxypropylcellulose) (HPC) 88 % of control | [1] 107 % of control | dose: 200.0 mg/kg/injection, schedule: Q01DX005 (ip), vehicle: Klucel (hydroxypropylcellulose) (HPC) 94 % of control | [2] 101 % of control | dose: 400.0 mg/kg/injection, schedule: Q01DX005 (ip), vehicle: Klucel (hydroxypropylcellulose) (HPC) 102 % of control | [3] 101 % of control

O=[As](O)(CC(O)c1ccccc1)c1ccc(Cl)cc1 (stereo unspecified)
inactive: dose: 6.25 mg/kg/injection, schedule: Q01DX001 (ip), vehicle: saline with Tween-80 100 % of control | dose: 12.5 mg/kg/injection, schedule: Q01DX001 (ip), vehicle: saline with Tween-80 109 % of control | dose: 25.0 mg/kg/injection, schedule: Q01DX001 (ip), vehicle: saline with Tween-80 105 % of control and 116 % of control

O/N=C1\c2ccccc2-c2ccc(Cl)cc21
inactive: [4] 95 % of control | [5] 111 % of control | [6] 97 % of control

COc1ccc(C)cc1NC(=O)C1CC1
inactive: [7] 103 % of control | [8] 113 % of control | [9] 104 % of control

Cc1ccc(NC(=O)c2ccccc2-c2ccccc2C(=O)Nc2ccc(C)cc2)cc1
inactive: dose: 100.0 mg/kg/injection, schedule: Q01DX001 (ip), vehicle: other 91 % of control

CC(=O)C1CCC2(C)CCC(=O)C(C)C2C1 (stereo unspecified)
inactive: [10] 107 % of control | [11] 104 % of control | [7] 100 % of control | [12] 104 % of control | [13] 106 % of control | [8] 100 % of control | [14] 101 % of control | [15] 101 % of control | [9] 98 % of control | [16] 101 % of control

c1ccc(C2=NN(c3ccccc3)CC2)cc1
inactive: [1] 106 % of control | [2] 98 % of control | [3] 106 % of control

Nc1nc(Cl)c(N=Nc2ccccc2)c(=O)[nH]1
inactive: dose: 25.0 mg/kg/injection, schedule: Q01DX009 (ip), vehicle: carboxymethylcellulose (CMC) 97 % of control and 98 % of control | dose: 50.0 mg/kg/injection, schedule: Q01DX009 (ip), vehicle: carboxymethylcellulose (CMC) 93 % of control and 90 % of control | [4] 95 % of control and 102 % of control | dose: 100.0 mg/kg/injection, schedule: Q04DX002 (ip), vehicle: carboxymethylcellulose (CMC) 97 % of control and 89 % of control | dose: 100.0 mg/kg/injection, schedule: Q04DX003 (ip), vehicle: carboxymethylcellulose (CMC) 100 % of control and 108 % of control | [5] 98 % of control and 109 % of control | dose: 200.0 mg/kg/injection, schedule: Q04DX002 (ip), vehicle: carboxymethylcellulose (CMC) 93 % of control | dose: 200.0 mg/kg/injection, schedule: Q04DX003 (ip), vehicle: carboxymethylcellulose (CMC) 106 % of control and 113 % of control | [6] 95 % of control and 98 % of control | dose: 400.0 mg/kg/injection, schedule: Q04DX002 (ip), vehicle: carboxymethylcellulose (CMC) 93 % of control and 98 % of control | dose: 400.0 mg/kg/injection, schedule: Q04DX003 (ip), vehicle: carboxymethylcellulose (CMC) 100 % of control and 106 % of control

Oc1cc(O)c(CN2CCCCC2)cc1CN1CCCCC1
inactive: [17] 87 % of control

O=C(/C=C\c1ccccc1)NCCNC(=O)/C=C/c1ccccc1
inactive: [17] 105 % of control | [18] 94 % of control | dose: 400.0 mg/kg/injection, schedule: Q01DX001 (ip), vehicle: saline 108 % of control

CC(C)C(NC(=O)C(CSCc1ccccc1)NC(=O)OCc1ccccc1)C(N)=O (stereo unspecified) (Cbz-Cys(Bn)-Val-NH2; configuration not given here)
inactive: [7] 87 % of control | [8] 89 % of control

c1cc2cccc3c2c(c1)c1sc2c4cccc5cccc(c54)c2c31
inactive: dose: 100.0 mg/kg/injection, schedule: Q01DX009 (ip), vehicle: saline with Tween-80 100 % of control | dose: 100.0 mg/kg/injection, schedule: Q04DX003 (ip), vehicle: saline with Tween-80 101 % of control | dose: 200.0 mg/kg/injection, schedule: Q01DX009 (ip), vehicle: saline with Tween-80 92 % of control | dose: 200.0 mg/kg/injection, schedule: Q04DX003 (ip), vehicle: saline with Tween-80 90 % of control | dose: 400.0 mg/kg/injection, schedule: Q01DX009 (ip), vehicle: saline with Tween-80 89 % of control | dose: 400.0 mg/kg/injection, schedule: Q04DX003 (ip), vehicle: saline with Tween-80 94 % of control

Cc1cccc(C)c1N(C=O)N=O
inactive: [17] 110 % of control | [18] 104 % of control

OCCCNc1nc2ccc(Cl)cc2c2ccccc12
inactive: [12] 116 % of control | [14] 107 % of control | [16] 108 % of control

O=C(O)c1c2ccc(Cl)cc2nc2[nH]c(=O)[nH]c(=O)c12
inactive: [1] 108 % of control | [2] 120 % of control | [3] 113 % of control

COc1ccc(C)cc1NN
inactive: dose: 25.0 mg/kg/injection, schedule: Q01DX009 (ip), vehicle: saline 101 % of control | [19] 97 % of control | dose: 100.0 mg/kg/injection, schedule: Q04DX003 (ip), vehicle: saline 96 % of control

CC(=O)NCCCCCC(=O)Nc1ccc(Cl)c(Cl)c1
inactive: [4] 94 % of control | [5] 92 % of control | [6] 92 % of control

CC(C)(C)OC(=O)CCSC(C)(C)C
inactive: [11] 96 % of control | [13] 96 % of control | [15] 96 % of control

C=CCOCC(O)CN1CCC(C)CC1 (stereo unspecified)
inactive: dose: 6.0 mg/kg/injection, schedule: Q04DX003 (ip), vehicle: Klucel (hydroxypropylcellulose) (HPC) 95 % of control | dose: 12.0 mg/kg/injection, schedule: Q04DX003 (ip), vehicle: Klucel (hydroxypropylcellulose) (HPC) 95 % of control | dose: 25.0 mg/kg/injection, schedule: Q04DX003 (ip), vehicle: Klucel (hydroxypropylcellulose) (HPC) 97 % of control | [10] 98 % of control | [12] 95 % of control

CCN(CC)CCCCCCNc1ccnc2cc(Cl)ccc12
inactive: dose: 50.0 mg/kg/injection, schedule: Q01DX001 (ip), vehicle: carboxymethylcellulose (CMC) 95 % of control

CCCCCCCCCC(CCCCCCCC)SC(C)=O (stereo unspecified)
inactive: [1] 108 % of control | [2] 103 % of control | [3] 103 % of control

O=C(O)c1ccc(I)cc1.[Ni]
inactive: dose: 25.0 mg/kg/injection, schedule: Q04DX002 (ip), vehicle: Klucel (hydroxypropylcellulose) (HPC) 100 % of control | dose: 50.0 mg/kg/injection, schedule: Q04DX002 (ip), vehicle: Klucel (hydroxypropylcellulose) (HPC) 100 % of control

O=C(O)CSc1ccc2ccccc2c1
inactive: [1] 89 % of control | [2] 111 % of control | [3] 108 % of control

NC(N)=NC(N)=NC1CCCCC1
inactive: [19] 89 % of control | dose: 100.0 mg/kg/injection, schedule: Q01DX009 (ip), vehicle: saline 102 % of control | dose: 200.0 mg/kg/injection, schedule: Q01DX009 (ip), vehicle: saline 108 % of control
